Laboratory results published in patent US20050112573A1, “Method of detecting toxic substance” (priority 2001, published 2005).

Tested on: yeast genes (level of expressed mRNA)
Assay: DNA chip analysis of expressed mRNA of yeast genes after 2 h culture with a toxic chemical substance
Type: cell-based, Saccharomyces cerevisiae S288C
Settings: for The level of expressed mRNA in the presence of chemical substance/ (ratio to absence of chemical substance): stress protein genes, DNA chip
Outline: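 Values are treated-to-control fluorescence ratios from a whole-yeast-genome DNA chip (65° C, over 12 h hybridization) using Cy3/Cy5-labelled cDNA from mRNA. Log-phase S288C cells in YPD at 25° C were exposed 2 h to a toxicant at sublethal, growth-inhibiting concentration.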

## CCCCC[C@H](O)CC(=O)CCc1ccc(O)c(OC)c1 [(13), gingerol]
Gene YOR267C
  The level of expressed mRNA in the presence of chemical substance/absence: YOR267C: 1.4
Gene YOR325W
  The level of expressed mRNA in the presence of chemical substance/absence: YOR325W: 0.6
Gene YOR336W
  level of expressed mRNA in the presence of chemical substance/in its absence: 2.1
Gene YOR344C
  level of expressed mRNA in the presence of chemical substance/in its absence: 1.8
Gene YOR347C
  level of expressed mRNA in the presence of chemical substance/in its absence: 1.8
Gene YPL005W
  The level of expressed mRNA in the presence of chemical substance/absence: YPL005W: 1.2
Gene YPL017C
  level of expressed mRNA in the presence of chemical substance/in its absence: 1.9
Gene YPL107W, DNA chip fluorescence ratio to control without chemical, 2 hours culture with chemical, growth-inhibiting non-lethal concentration
  The level of expressed mRNA in the presence of chemical substance / the level in the absence of chemical substance, yeast gene YPL107W: 0.8
Gene YPL138C, DNA chip fluorescence ratio to control without chemical, 2 hours culture with chemical, growth-inhibiting non-lethal concentration
  The level of expressed mRNA in the presence of chemical substance / the level in the absence of chemical substance, yeast gene YPL138C: 0.6
Gene YPL150W
  The level of expressed mRNA in the presence of chemical substance/absence: YPL150W: 2.1
Gene YPL151C
  The level of expressed mRNA in the presence of chemical substance/absence: YPL151C: 1.4
Gene YPL152W
  The level of expressed mRNA in the presence of chemical substance/absence: YPL152W: 1.4
Gene YPL168W
  The level of expressed mRNA in the presence of chemical substance/absence: YPL168W: 1.0
Gene YPL180W
  The level of expressed mRNA in the presence of chemical substance/absence: YPL180W: 1.5
Gene YPL188W
  The level of expressed mRNA in the presence of chemical substance/absence: YPL188W: 0.9
Gene YPL221W
  The level of expressed mRNA in the presence of chemical substance/absence: YPL221W: 1.0
Gene YPL225W
  The level of expressed mRNA in the presence of chemical substance/absence: YPL225W: 0.8
Gene YPL249C
  The level of expressed mRNA in the presence of chemical substance/absence: YPL249C: 1.8
Gene YPL260W
  The level of expressed mRNA in the presence of chemical substance/absence: YPL260W: 1.4
Gene YPL265W
  level of expressed mRNA in the presence of chemical substance/in its absence: 1.1
Gene YPR006C
  level of expressed mRNA in the presence of chemical substance/in its absence: 1.8
Gene YPR026W
  level of expressed mRNA in the presence of chemical substance/in its absence: 2.3
Gene YPR049C
  The level of expressed mRNA in the presence of chemical substance/absence: YPR049C: 1.6
Gene YPR061C
  The level of expressed mRNA in the presence of chemical substance/absence: YPR061C: 1.1
Gene YPR093C
  The level of expressed mRNA in the presence of chemical substance/absence: YPR093C: 1.4
Gene YPR146C
  The level of expressed mRNA in the presence of chemical substance/absence: YPR146C: 1.3
Gene YPR148C
  The level of expressed mRNA in the presence of chemical substance/absence: YPR148C: 1.2
Gene YPR150W
  The level of expressed mRNA in the presence of chemical substance/absence: YPR150W: 1.4
Gene YPR158W
  The level of expressed mRNA in the presence of chemical substance/absence: YPR158W: 1.6
Gene YPR169W
  The level of expressed mRNA in the presence of chemical substance/absence: YPR169W: 1.0
Gene YPR172W
  The level of expressed mRNA in the presence of chemical substance/absence: YPR172W: 1.3
Gene YPR174C
  The level of expressed mRNA in the presence of chemical substance/absence: YPR174C: 1.4
Yeast gene YAR010C
  The level of expressed mRNA in the presence of chemical substance/The level of expressed mRNA in the absence of chemical substance: 1.4
Yeast gene YBL005W-A
  The level of expressed mRNA in the presence of chemical substance/The level of expressed mRNA in the absence of chemical substance: 2.9
Yeast gene YBL038W, mitochondria-located protein genes, 2 h culture with chemical
  The level of expressed mRNA in the presence of chemical substance/ (ratio to absence), gene YBL038W: 1.0
Yeast gene YBL041W
  The level of expressed mRNA in the presence of chemical substance/The level of expressed mRNA in the absence of chemical substance: 2.6
Yeast gene YBL043W
  The level of expressed mRNA in the presence of chemical substance/The level of expressed mRNA in the absence of chemical substance: 1.8
Yeast gene YBL078C
  The level of expressed mRNA in the presence of chemical substance/The level of expressed mRNA in the absence of chemical substance: 5.0
Yeast gene YBL093C
  The level of expressed mRNA in the presence of chemical substance/ (ratio to absence of chemical substance): 2.1
Yeast gene YBR036C, ratio of DNA chip fluorescence intensity to that without chemical substance
  The level of expressed mRNA in the presence of chemical substance/ (in its absence), gene YBR036C: 1.9
Yeast gene YBR044C
  The level of expressed mRNA in the presence of chemical substance/ (ratio to absence of chemical substance): 1.2
Yeast gene YBR122C, mitochondria-located protein genes, 2 h culture with chemical
  The level of expressed mRNA in the presence of chemical substance/ (ratio to absence), gene YBR122C: 0.8
Yeast gene YBR214W
  The level of expressed mRNA in the presence of chemical substance/The level of expressed mRNA in the absence of chemical substance: 2.1
Yeast gene YBR251W, mitochondria-located protein genes, 2 h culture with chemical
  The level of expressed mRNA in the presence of chemical substance/ (ratio to absence), gene YBR251W: 1.0
Yeast gene YBR298C, ratio of DNA chip fluorescence intensity to that without chemical substance
  The level of expressed mRNA in the presence of chemical substance/ (in its absence), gene YBR298C: 0.8
Yeast gene YCL020W
  The level of expressed mRNA in the presence of chemical substance/The level of expressed mRNA in the absence of chemical substance: 3.0
Yeast gene YCL027W
  The level of expressed mRNA in the presence of chemical substance/The level of expressed mRNA in the absence of chemical substance: 1.1
Yeast gene YCR004C
  The level of expressed mRNA in the presence of chemical substance/The level of expressed mRNA in the absence of chemical substance: 1.3
Yeast gene YCR046C, mitochondria-located protein genes, 2 h culture with chemical
  The level of expressed mRNA in the presence of chemical substance/ (ratio to absence), gene YCR046C: 1.5
Yeast gene YCR071C
  The level of expressed mRNA in the presence of chemical substance/The level of expressed mRNA in the absence of chemical substance: 1.3
Yeast gene YCR083W, mitochondria-located protein genes, 2 h culture with chemical
  The level of expressed mRNA in the presence of chemical substance/ (ratio to absence), gene YCR083W: 1.8
Yeast gene YCR083W
  The level of expressed mRNA in the presence of chemical substance/ (ratio to absence of chemical substance): 1.8
Yeast gene YCR088W
  The level of expressed mRNA in the presence of chemical substance/The level of expressed mRNA in the absence of chemical substance: 1.9
Yeast gene YDL008W
  The level of expressed mRNA in the presence of chemical substance/The level of expressed mRNA in the absence of chemical substance: 2.0
Yeast gene YDL067C, energy system protein genes, 2 h culture with the chemical, ratio to control without chemical
  The level of expressed mRNA in the presence of chemical substance/ in its absence, gene YDL067C: 0.6
Yeast gene YDL067C, mitochondria-located protein genes, 2 h culture with chemical
  The level of expressed mRNA in the presence of chemical substance/ (ratio to absence), gene YDL067C: 0.6
Yeast gene YDL078C, energy system protein genes, 2 h culture with the chemical, ratio to control without chemical
  The level of expressed mRNA in the presence of chemical substance/ in its absence, gene YDL078C: 1.0
